We go through six molecules from PubChem BioAssay (NCI).

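The compound was tested at five concentrations on cells cultured in 96-well plates, with a 48-hour exposure period. TGI denotes the concentration required for complete inhibition of growth.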

Among the test systems are UACC-257 melanoma; SK-MEL-2 melanoma; HCT-15 colon; KM12 colon; MOLT-4 leukemia; NCI-H460 lung; OVCAR-4 ovarian; SK-MEL-28 melanoma; MCF7 breast; SN12C renal; SK-MEL-5 melanoma; T-47D breast; IGROV1 ovarian; HOP-92 NSCLC; COLO 205 colon; NCI-H226 lung; OVCAR-3 ovarian; UO-31 renal; A498 renal; UACC-62 melanoma.
What all share (assay): NCI-60 cell line screen, 48 h

Consider `Nc1nc(Cl)cc(NCC2(CO)CCC(O)C2)n1` (stereo not given), for which the TGI with UACC-257 melanoma, in the assay with SK-MEL-2 melanoma, in the assay on HCT-15 colon, with KM12 colon, in the assay with MOLT-4 leukemia and in the assay with NCI-H460 lung was greater than 100 µM throughout. Moreover, the TGI with OVCAR-4 ovarian, in the assay on SK-MEL-28 melanoma, in the assay on MCF7 breast, in the assay with SN12C renal, in the assay on SK-MEL-5 melanoma and in the assay on T-47D breast was greater than 100 µM each time. Moreover, the TGI with IGROV1 ovarian, in the assay with HOP-92 NSCLC, in the assay on COLO 205 colon, in the assay with NCI-H226 lung, with OVCAR-3 ovarian and in the assay with UO-31 renal was greater than 100 µM in each case. Further, the TGI in the assay with A498 renal and in the assay with UACC-62 melanoma was greater than 100 µM each time.

With `NC1=CN(Cc2ccccc2)C2=N/C(=C\c3ccccc3)C(=O)N12`, the TGI with UACC-257 melanoma, with SK-MEL-2 melanoma, in the assay with HCT-15 colon, in the assay with KM12 colon, with MOLT-4 leukemia and in the assay with NCI-H460 lung was greater than 100 µM each time. Besides, the TGI with OVCAR-4 ovarian, with SK-MEL-28 melanoma, in the assay with MCF7 breast, with SN12C renal, with SK-MEL-5 melanoma and in the assay on T-47D breast was greater than 100 µM each time. Moreover, the TGI with IGROV1 ovarian, with HOP-92 NSCLC, in the assay with COLO 205 colon, with NCI-H226 lung, with OVCAR-3 ovarian and in the assay with UO-31 renal was greater than 100 µM throughout. Further, the TGI in the assay with A498 renal and in the assay with UACC-62 melanoma was greater than 100 µM throughout.

Regarding `COCOCC1CCCN1CN1CCC[C@H]1COCOC` (stereo not given in full), the TGI with UACC-257 melanoma, with SK-MEL-2 melanoma, in the assay on HCT-15 colon, in the assay on KM12 colon, in the assay with MOLT-4 leukemia and with NCI-H460 lung was greater than 100 µM throughout. Also, the TGI with OVCAR-4 ovarian, with SK-MEL-28 melanoma, in the assay on MCF7 breast, with SN12C renal, in the assay on SK-MEL-5 melanoma and with T-47D breast was greater than 100 µM each time. For the same molecule, the TGI with IGROV1 ovarian, in the assay on HOP-92 NSCLC, in the assay with COLO 205 colon, with NCI-H226 lung, in the assay with OVCAR-3 ovarian and in the assay on UO-31 renal was greater than 100 µM each time. Also, the TGI with A498 renal and with UACC-62 melanoma was greater than 100 µM each time.

With `CC(C)(C)CC(C)(C)N=C(N)NO`, the TGI in the assay with UACC-257 melanoma, with SK-MEL-2 melanoma, in the assay on HCT-15 colon, in the assay on KM12 colon, in the assay on MOLT-4 leukemia and in the assay on NCI-H460 lung was greater than 100 µM in each case. In addition, the TGI with OVCAR-4 ovarian, in the assay with SK-MEL-28 melanoma, in the assay with MCF7 breast, with SN12C renal, in the assay on SK-MEL-5 melanoma and with T-47D breast was greater than 100 µM each time. Moreover, the TGI was greater than 100 µM in the assay with IGROV1 ovarian; greater than 100 µM with HOP-92 NSCLC; greater than 100 µM with COLO 205 colon; greater than 100 µM in the assay on NCI-H226 lung; greater than 100 µM in the assay on OVCAR-3 ovarian; greater than 80.2 µM in the assay with UO-31 renal. Besides, the TGI in the assay with A498 renal is 97.6 µM; in the assay on UACC-62 melanoma it was greater than 100 µM.

On to `CC(C)C1SCc2nc3ccccc3n21` (stereo not given), for which the TGI in the assay with UACC-257 melanoma was greater than 100 µM; in the assay on SK-MEL-2 melanoma it was 79.6 µM; with HCT-15 colon, greater than 100 µM; with KM12 colon, 45.5 µM; in the assay with MOLT-4 leukemia it was 81.6 µM; with NCI-H460 lung, greater than 100 µM. Further, the TGI with OVCAR-4 ovarian was greater than 100 µM; with SK-MEL-28 melanoma, greater than 100 µM; with MCF7 breast, 45.8 µM; with SN12C renal, greater than 100 µM; with SK-MEL-5 melanoma, 31 µM; in the assay on T-47D breast it was greater than 100 µM. For the same molecule, the TGI is greater than 100 µM with IGROV1 ovarian; greater than 100 µM with HOP-92 NSCLC; 26.8 µM in the assay on COLO 205 colon; 0.96 µM in the assay with NCI-H226 lung; greater than 100 µM in the assay with OVCAR-3 ovarian; greater than 100 µM in the assay with UO-31 renal. Moreover, the TGI was 83.3 µM in the assay on A498 renal and greater than 100 µM with UACC-62 melanoma.

As to `CC[N+]1(C)CCC(O)(c2ccccc2)C(C(=O)c2ccccc2)C1` (stereo not given), the TGI in the assay on UACC-257 melanoma was determined as 32.7 µM; in the assay on SK-MEL-2 melanoma, 37.7 µM; in the assay on HCT-15 colon it was 21.8 µM; in the assay with KM12 colon it was 39.3 µM; with MOLT-4 leukemia, 11.3 µM; with NCI-H460 lung, 43 µM. Also, the TGI with OVCAR-4 ovarian amounted to 25.9 µM; in the assay on SK-MEL-28 melanoma, 30.9 µM; in the assay with MCF7 breast, 9.6 µM; with SN12C renal, 21.6 µM; in the assay with SK-MEL-5 melanoma, 33.6 µM; in the assay with T-47D breast, 39.7 µM. In addition, the TGI in the assay on IGROV1 ovarian amounted to 38.6 µM; in the assay on HOP-92 NSCLC, 25.4 µM; in the assay with COLO 205 colon it was 36.7 µM; in the assay on NCI-H226 lung it was 38.8 µM; in the assay with OVCAR-3 ovarian it was 45.7 µM; in the assay with UO-31 renal, 33.6 µM. The TGI with A498 renal came out at 30.7 µM; in the assay with UACC-62 melanoma it was 38.6 µM.
